Patent publication US9133207B2, “Tetrandrine derivatives with substituted 5-carbon, preparation method and use thereof” (Hangzhou Bensheng Pharmaceutical Co., Ltd., priority 2011, dated 2015)
Values after ≈ are worked out from the molar mass of the structure shown.

What was measured:
[1] = test system: H9 (acute lymphoblastic leukemia, ALL); assay: Leukemia cell growth inhibition, MTT, 72 h (Example 5); format: cell-based, human; details: Homo sapiens; 72 h, MTT
In short: (§1)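 Viability read by MTT after 72 h of compound treatment at 37 °C under 5% CO2; each well seeded with 6000 cells in 1640 medium plus 10% fetal bovine serum, compounds at several concentrations.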

[2] = test system: Jurkat (acute lymphoblastic leukemia, ALL); assay: as above; format: cell-based, human; details: Homo sapiens, Jurkat; 72 h, MTT
In short: as §1

[3] = test system: K562/adr (drug-resistant, chronic myeloid leukemia, CML); assay: as above; format: cell-based, human; details: Homo sapiens, K562/Adr; 72 h, MTT
In short: as §1

[4] = test system: Kasumi-1 (acute myeloid leukemia M2 type, AML-M2); assay: as above; format: cell-based, human; details: Homo sapiens, Kasumi 1
In short: as §1

[5] = test system: NB4 (acute promyelocytic leukemia, AML); assay: as above; format: cell-based, human; details: Homo sapiens; 72 h, MTT
In short: as §1

[6] = test system: RPMI8226 (multiple myeloma); assay: Multiple myeloma cell growth inhibition, MTT, 72 h (Example 6); format: cell-based, human; details: Homo sapiens, RPMI-8226; 72 h, MTT, RPMI8226
In short: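 Viability was read by MTT after 72 h of compound exposure at 37 °C, 5% CO2. Each well held 6000 RPMI8226 cells in 1640 medium containing 10% fetal bovine serum, with derivatives added at various concentrations.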

[7] = test system: CaES-17 (esophageal cancer cell); assay: Solid tumor cell growth inhibition, MTT, 72 h (Example 7); format: cell-based, human; details: Homo sapiens, CaEs17; 72 h, MTT, CAES-17
In short: (§2)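 Each line is plated at 4000 cells per well in high-glucose DMEM supplemented with 10% FBS. After 24 h settling, derivatives at several concentrations are mixed in and cultured 72 h; MTT then gives viable cells, with untreated wells set to 100%.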

[8] = test system: MG63 (osteosarcoma); assay: as above; format: cell-based, human; details: Homo sapiens; 72 h, MTT, MG-63
In short: as §2

[9] = test system: PANC-1 (pancreatic cancer); assay: as above; format: cell-based, human; details: Homo sapiens; 72 h, MTT, PANC-1
In short: as §2

[10] = test system: PC-3 (prostate cancer); assay: as above; format: cell-based, human; details: Homo sapiens; 72 h, MTT, PC-3
In short: as §2

[11] = test system: A549 (human lung cancer); assay: as above; format: cell-based; details: Homo sapiens; 72 h, MTT, A549
In short: as §2

[12] = test system: Becap37 (human breast cancer cell); assay: as above; format: cell-based; details: Homo sapiens; 72 h, MTT, Becap-37
In short: as §2

[13] = test system: Huh7 (human liver cancer cell); assay: as above; format: cell-based; details: Homo sapiens; 72 h, MTT, Huh-7
In short: as §2

[14] = test system: MGC 803 (human gastric cancer cell); assay: as above; format: cell-based; details: Homo sapiens
In short: as §2

[15] = test system: RKO (human colon adenocarcinoma cell); assay: as above; format: cell-based; details: Homo sapiens; 72 h, MTT, RKO
In short: as §2

Row | SMILES | IC50 [1] | IC90 [1] | IC50 [2] | IC90 [2] | IC50 [3] | IC90 [3] | IC50 [4] | IC90 [4] | IC50 [5] | IC90 [5] | IC50 [6] | IC90 [6] | IC50 [7] | IC90 [7] | IC50 [8] | IC90 [8] | IC50 [9] | IC90 [9] | IC50 [10] | IC90 [10] | also measured
1 | COc1ccc2cc1Oc1ccc(cc1)C[C@H]1c3cc(c(OC)cc3CCN1C)Oc1c(OC)c(OC)c(CN3CCN(CCO)CC3)c3c1[C@H](C2)N(C)CC3 [BS-TE-334] | 1.3 µg/mL (≈ 1.7 µM) | 2.4 µg/mL (≈ 3.14 µM) | 1.88 µg/mL (≈ 2.46 µM) | 7.85 µg/mL (≈ 10.3 µM) | 1.49 µg/mL (≈ 1.95 µM) | 5.99 µg/mL (≈ 7.83 µM) | 1.06 µg/mL (≈ 1.39 µM) | 3.64 µg/mL (≈ 4.76 µM) | > 16 µg/mL | > 16 µg/mL | 0.05 µg/mL (≈ 0.0654 µM) | 1.11 µg/mL (≈ 1.45 µM) | 2.35 µg/mL (≈ 3.07 µM) | 21.5 µg/mL (≈ 28.1 µM) | 0.84 µg/mL (≈ 1.1 µM) | 2.44 µg/mL (≈ 3.19 µM) | 3.99 µg/mL (≈ 5.22 µM) | 11 µg/mL (≈ 14.4 µM) | 3.35 µg/mL (≈ 4.38 µM) | 6.05 µg/mL (≈ 7.91 µM) | IC50 [11]: 4 µg/mL (≈ 5.23 µM); IC90 [11]: 14.6 µg/mL (≈ 19.1 µM); IC50 [12]: 3.09 µg/mL (≈ 4.04 µM); IC90 [12]: 8.39 µg/mL (≈ 11 µM); IC50 [13]: 2.55 µg/mL (≈ 3.33 µM); IC90 [13]: 4.38 µg/mL (≈ 5.73 µM); IC50 [14]: 2.22 µg/mL (≈ 2.9 µM); IC90 [14]: 10 µg/mL (≈ 13.1 µM); IC50 [15]: 0.82 µg/mL (≈ 1.07 µM); IC90 [15]: 2.04 µg/mL (≈ 2.67 µM)
2 | COCCCNCc1c2c3c(c(OC)c1OC)Oc1cc4c(cc1OC)CCN(C)[C@H]4Cc1ccc(cc1)Oc1cc(ccc1OC)C[C@@H]3N(C)CC2 [BS-TE-340] | 1.93 µg/mL (≈ 2.67 µM) | 3.23 µg/mL (≈ 4.46 µM) | 2.24 µg/mL (≈ 3.09 µM) | 4 µg/mL (≈ 5.53 µM) | 0.98 µg/mL (≈ 1.35 µM) | 2.39 µg/mL (≈ 3.3 µM) | 0.66 µg/mL (≈ 0.912 µM) | 1.8 µg/mL (≈ 2.49 µM) | 1.07 µg/mL (≈ 1.48 µM) | 2.87 µg/mL (≈ 3.96 µM) | 0.18 µg/mL (≈ 0.249 µM) | 0.999 µg/mL (≈ 1.38 µM) | 1.83 µg/mL (≈ 2.53 µM) | 7.21 µg/mL (≈ 9.96 µM) | 0.6 µg/mL (≈ 0.829 µM) | 1.19 µg/mL (≈ 1.64 µM) | 3.61 µg/mL (≈ 4.99 µM) | 5.72 µg/mL (≈ 7.9 µM) | 3.43 µg/mL (≈ 4.74 µM) | 4 µg/mL (≈ 5.53 µM) | IC50 [11]: 2.36 µg/mL (≈ 3.26 µM); IC90 [11]: 6.66 µg/mL (≈ 9.2 µM); IC50 [12]: 1.99 µg/mL (≈ 2.75 µM); IC90 [12]: 4.12 µg/mL (≈ 5.69 µM); IC50 [13]: 2.52 µg/mL (≈ 3.48 µM); IC90 [13]: 4.85 µg/mL (≈ 6.7 µM); IC50 [14]: 2.34 µg/mL (≈ 3.23 µM); IC90 [14]: 5.54 µg/mL (≈ 7.65 µM); IC50 [15]: 1.29 µg/mL (≈ 1.78 µM); IC90 [15]: 2.45 µg/mL (≈ 3.38 µM)
3 | COc1ccc2cc1Oc1ccc(cc1)C[C@H]1c3cc(c(OC)cc3CCN1C)Oc1c(OC)c(OC)c(CN3CCN(c4ccccc4)CC3)c3c1[C@H](C2)N(C)CC3 [BS-TE-343] | 1.62 µg/mL (≈ 2.03 µM) | 2.75 µg/mL (≈ 3.45 µM) | 1.9 µg/mL (≈ 2.38 µM) | 5.27 µg/mL (≈ 6.61 µM) | 0.68 µg/mL (≈ 0.853 µM) | 2.38 µg/mL (≈ 2.99 µM) | 2.24 µg/mL (≈ 2.81 µM) | 6.95 µg/mL (≈ 8.72 µM) | 1.18 µg/mL (≈ 1.48 µM) | 3.06 µg/mL (≈ 3.84 µM) | 0.05 µg/mL (≈ 0.0627 µM) | 0.7 µg/mL (≈ 0.878 µM) | 2.09 µg/mL (≈ 2.62 µM) | 8.09 µg/mL (≈ 10.2 µM) | 1.15 µg/mL (≈ 1.44 µM) | 2.47 µg/mL (≈ 3.1 µM) | 2.84 µg/mL (≈ 3.56 µM) | 4.84 µg/mL (≈ 6.07 µM) | 2.72 µg/mL (≈ 3.41 µM) | 4.28 µg/mL (≈ 5.37 µM) | IC50 [11]: 3.54 µg/mL (≈ 4.44 µM); IC90 [11]: 12 µg/mL (≈ 15 µM); IC50 [12]: 6.96 µg/mL (≈ 8.73 µM); IC90 [12]: 8.17 µg/mL (≈ 10.3 µM); IC50 [13]: 2.14 µg/mL (≈ 2.69 µM); IC90 [13]: 4.85 µg/mL (≈ 6.09 µM); IC50 [14]: 1.1 µg/mL (≈ 1.38 µM); IC90 [14]: 2.88 µg/mL (≈ 3.61 µM); IC50 [15]: 2.25 µg/mL (≈ 2.82 µM); IC90 [15]: 3.24 µg/mL (≈ 4.07 µM)
4 | COc1ccc2cc1Oc1ccc(cc1)C[C@H]1c3cc(c(OC)cc3CCN1C)Oc1c(OC)c(OC)c(CNCc3cccnc3)c3c1[C@H](C2)N(C)CC3 [BS-TE-348] | 1.33 µg/mL (≈ 1.79 µM) | 2.97 µg/mL (≈ 4 µM) | 1.82 µg/mL (≈ 2.45 µM) | 9.94 µg/mL (≈ 13.4 µM) | 1.45 µg/mL (≈ 1.95 µM) | 5.7 µg/mL (≈ 7.67 µM) | 1.96 µg/mL (≈ 2.64 µM) | 7.37 µg/mL (≈ 9.92 µM) | 1.14 µg/mL (≈ 1.53 µM) | 4.78 µg/mL (≈ 6.43 µM) | 0.09 µg/mL (≈ 0.121 µM) | 1 µg/mL (≈ 1.35 µM) | 2.3 µg/mL (≈ 3.1 µM) | 14.5 µg/mL (≈ 19.6 µM) | 1.52 µg/mL (≈ 2.05 µM) | 4.06 µg/mL (≈ 5.46 µM) | 4.55 µg/mL (≈ 6.12 µM) | 13.9 µg/mL (≈ 18.7 µM) | 4.44 µg/mL (≈ 5.98 µM) | 8.36 µg/mL (≈ 11.3 µM) | IC50 [11]: 9.94 µg/mL (≈ 13.4 µM); IC90 [11]: > 16 µg/mL; IC50 [12]: 3.84 µg/mL (≈ 5.17 µM); IC90 [12]: 13.6 µg/mL (≈ 18.3 µM); IC50 [13]: 3.05 µg/mL (≈ 4.11 µM); IC90 [13]: 8 µg/mL (≈ 10.8 µM); IC50 [14]: 1.93 µg/mL (≈ 2.6 µM); IC90 [14]: 5.53 µg/mL (≈ 7.44 µM); IC50 [15]: 1.77 µg/mL (≈ 2.38 µM); IC90 [15]: 3.83 µg/mL (≈ 5.16 µM)
